# Assay results from patent publication US11071730B2, “Substituted 6-azabenzimidazole compounds” (Gilead Sciences, Inc., priority 2018, dated 2021).
# Biological target: human HPK1 (MAP4K1) (Homo sapiens (Human), UniProt Q92918)
# Assay: HPK1 IC50 Assay (TR-FRET biochemical kinase assay, STK S1 peptide substrate)
# Settings: recombinant human HPK1 kinase domain 0.15 nM, 10 μM ATP, 1 μM STK S1 peptide; geometric mean
# Procedure, shortened: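 Pre-activated recombinant kinase domain (insect cells; 0.15 nM) pre-incubated with compounds for 15 min, then 10 μM ATP and 1 μM STK S1 peptide added for 3 h at 25 °C in BES pH 7.0. Phosphorylation read by HTRF (665/620 nm). IC50 from four-parameter fits normalized to staurosporine/DMSO controls, geometric mean of repeats.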
# human HPK1 (MAP4K1), sequence (Q92918 17-274): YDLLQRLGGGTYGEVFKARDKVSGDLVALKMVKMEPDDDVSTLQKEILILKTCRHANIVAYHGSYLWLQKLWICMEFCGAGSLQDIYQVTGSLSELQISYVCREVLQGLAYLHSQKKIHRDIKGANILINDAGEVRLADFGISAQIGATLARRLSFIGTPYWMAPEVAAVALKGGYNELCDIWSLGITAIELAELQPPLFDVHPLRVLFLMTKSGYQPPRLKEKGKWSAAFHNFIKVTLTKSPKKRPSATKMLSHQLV
row,IC50 [nM],Structure (SMILES)
1,0.3,COC1(C(=O)N2CCC3(CC2)C(=O)N([C@H]2C[C@@H](N4CCCCC4)C2)c2cc(-c4cc5ncn(C(C)C)c5c(Nc5ccncc5F)n4)ccc23)CC1 [Example 146]
2,0.6,Cc1cc(Nc2nc(-c3ccc4c(c3)N([C@H]3C[C@@H](N5CCCCC5)C3)C(=O)C43CCN(C(=O)C4(C)COC4)CC3)cc3ncn(C(C)C)c23)c(F)cn1 [Example 129]

# The remaining lines, values behind:
row,Structure (SMILES),IC50 [nM]
1,CC(C)n1cnc2cc(-c3ccc4c(c3)N([C@H]3C[C@@H](N5CC(C)(C)C5)C3)C(=O)C43CCN(C4COC4)CC3)nc(Nc3ccncc3F)c21 [Example 176],0.8
2,CO[C@H]1C[C@@H](C(=O)N2CCC3(CC2)C(=O)N([C@H]2C[C@@H](N4CCC(C)(C)C4)C2)c2cc(-c4cc5ncn(C(C)C)c5c(Nc5ccncc5F)n4)ccc23)C1 [Example 156],0.2
3,CC(C)n1cnc2cc(-c3ccc4c(c3)N([C@H]3C[C@@H](N5CC6CCC(C6)C5)C3)C(=O)C43CCN(C(=O)C(C)(C)CO)CC3)nc(Nc3ccncc3F)c21 [Example 127],0.07

# Same assay, conditions: recombinant human HPK1 kinase domain 0.15 nM, 10 μM ATP, 1 μM STK S1 peptide; geometric mean of multiple experiments
row,IC50 [nM],Structure (SMILES)
1,0.1,CC(C)n1cnc2cc(-c3ccc4c(c3)N([C@H]3C[C@@H](N5CCCCC5)C3)C(=O)C43CCN(C(=O)[C@@H](C)O)CC3)nc(Nc3ccc(F)nc3F)c21 [Example 68]
2,0.6,"CC(C)n1cnc2cc(-c3ccc4c(c3)N([C@H]3C[C@@H](N5CCCCC5)C3)C(=O)C43CCN(C(=O)C4(C)CCOCC4)CC3)nc(Nc3ccncc3F)c21 [Example 1, 6-(4-((3-fluoropyridin-4-yl)amino)-3-isopropyl-3H-imidazo[4,5-c]pyridin-6-yl)-1′-(4-methyltetrahydro-2H-pyran-4-carbonyl)-1-((1s,3s)-3-(piperidin-1-yl)cyclobutyl)spiro[indoline-3,4′-piperidin]-2-one]"
3,0.4,CC(C)n1cnc2cc(-c3ccc4c(c3)N([C@H]3C[C@@H](N5CCC(C)(C)C5)C3)C(=O)C43CCN(C(=O)C(C)(C)O)CC3)nc(Nc3ccncc3F)c21 [Example 4]
4,0.4,CC(=O)N1CCC2(CC1)C(=O)N([C@H]1C[C@@H](N3CCC(C)(C)C3)C1)c1cc(-c3cc4ncn(C(C)C)c4c(Nc4ccncc4F)n3)ccc12 [Example 29]
5,0.6,COC(=O)N1CCC2(CC1)C(=O)N([C@H]1C[C@@H](N3CCCCC3)C1)c1cc(-c3cc4ncn(C(C)C)c4c(Nc4ccncc4F)n3)ccc12 [Example 30]

# More lines, now with the values behind:
row,Structure (SMILES),IC50 [nM]
1,CCn1cnc2cc(-c3ccc4c(c3)N([C@H]3C[C@@H](N5CCC(C)(C)C5)C3)C(=O)C43CCN(C4COC4)CC3)nc(Nc3ccncc3F)c21 [Example 87],0.7
2,CC(C)n1cnc2cc(-c3ccc4c(c3)N([C@H]3C[C@@H](N5CCC(C)(C)C5)C3)C(=O)C43CCN(C(=O)C4CCOCC4)CC3)nc(Nc3ccncc3F)c21 [Example 23],0.2
3,CC(C)n1cnc2cc(-c3ccc4c(c3)N([C@H]3C[C@@H](N5CC(C)(C)C[C@H]5CO)C3)C(=O)C43CCN(C4COC4)CC3)nc(Nc3ccncc3F)c21 [Example 38],1.4
4,CC(C)n1cnc2cc(-c3ccc4c(c3)N([C@H]3C[C@@H](N5C[C@@H](O)C(C)(C)C5)C3)C(=O)C43CCN(C4COC4)CC3)nc(Nc3ccncc3F)c21 [Example 40],0.6
5,CC(C)n1cnc2cc(-c3ccc4c(c3)N([C@H]3C[C@@H](N5CC(F)C6(CC6)C5)C3)C(=O)C43CCN(C4COC4)CC3)nc(Nc3ccncc3F)c21 (stereo partly drawn) [Example 49],0.5
6,CC(C)n1cnc2cc(-c3ccc4c(c3)N([C@H]3C[C@@H](N5CCCC6(CC6)C5)C3)C(=O)C43CCN(C(=O)C4(C)COC4)CC3)nc(Nc3ccncc3F)c21 [Example 35],0.2
7,CC(C)n1cnc2cc(-c3ccc4c(c3)N([C@H]3C[C@@H](N5CCC(F)CC5)C3)C(=O)C43CCN(C4COC4)CC3)nc(Nc3ccncc3F)c21 [Example 43],1.1
8,CC(C)n1cnc2cc(-c3ccc4c(c3)N([C@H]3C[C@@H](N5CC6CCC(C6)C5)C3)C(=O)C4(C)C)nc(Nc3ccncc3F)c21 [Example 62],0.05
